Data: ChEMBL document CHEMBL1201862, “PubChem BioAssay data set” (2004)
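A five-concentration, 48-hour dose response in 96-well plates underlies each endpoint, interpolated linearly between surrounding concentrations. The concentration for 50% growth inhibition is given as GI50.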 The source made the active and inactive calls. Cut-off read from the data, not from the text of the source: active = GI50 up to about 1.1 µM and inactive = higher.

Tests used:
Assay in all cases: inhibition of tumour cell growth, NCI panel, 48 h
[1] = test system: UACC-257
[2] = test system: SNB-19
[3] = test system: HL-60
[4] = test system: RPMI-8226
[5] = test system: KM12
[6] = test system: OVCAR-8
[7] = test system: HOP-92
[8] = test system: HCT-116
[9] = test system: UACC-62
[10] = test system: CAKI-1
[11] = test system: NCI-H522
[12] = test system: LOX IMVI
[13] = test system: MOLT-4
[14] = test system: Malme-3M
[15] = test system: SF-268
[16] = test system: OVCAR-3
[17] = test system: ACHN
[18] = test system: K562
[19] = test system: HOP-62

Measured: GI50

O=c1[nH]c(=O)n([C@@H]2C[C@H](CO)[C@H](O)C2)cc1/C=C/Br
inactive: [1] > 100 µM | [2] > 100 µM | [3] > 100 µM | [4] > 100 µM | [5] > 100 µM | [6] > 100 µM | [7] > 100 µM | [8] > 100 µM | [9] > 100 µM | [10] > 100 µM | [11] > 100 µM | [12] > 100 µM | [13] > 100 µM | [14] > 100 µM | [15] > 100 µM | [16] > 100 µM | [17] > 100 µM | [18] > 100 µM | [19] > 100 µM

COc1cc2c(cc1OC)[C@@H]([C@H](O)c1ccccc1)NCC2
inactive: [1] > 100 µM | [2] > 100 µM | [3] > 100 µM | [4] > 100 µM | [5] > 100 µM | [6] > 100 µM | [7] > 74.1 µM | [8] > 100 µM | [9] > 100 µM | [10] > 84.9 µM | [11] > 100 µM | [12] > 100 µM | [13] > 100 µM | [14] > 100 µM | [15] > 100 µM | [16] > 100 µM | [17] > 100 µM | [18] > 100 µM | [19] > 100 µM

NC1=NN(c2ccccc2)C(=O)C1C(=O)CCC(=O)Nc1cccc(Cl)c1 (configuration not stated)
inactive: [1] > 100 µM | [2] > 100 µM | [3] > 100 µM | [5] > 100 µM | [6] > 100 µM | [7] > 100 µM | [8] > 100 µM | [9] > 100 µM | [10] > 100 µM | [11] > 100 µM | [12] > 100 µM | [14] > 100 µM | [15] > 100 µM | [16] > 100 µM | [17] > 100 µM | [18] > 100 µM | [19] > 100 µM

O=c1cc(-c2ccccc2)nc(/C=C(\O)c2ccncc2)n1-c1ccccc1
inactive: [1] > 100 µM | [2] > 100 µM | [3] > 100 µM | [5] > 100 µM | [6] > 100 µM | [7] > 100 µM | [8] > 100 µM | [9] > 100 µM | [10] > 100 µM | [11] > 100 µM | [12] > 100 µM | [14] > 100 µM | [15] > 100 µM | [16] > 100 µM | [17] > 100 µM | [18] > 100 µM | [19] > 100 µM

COc1ccc(/C=N/N=C(\N)NO)c(Cl)c1O
inactive: [1] 20.2 µM | [2] 41 µM | [4] 36 µM | [5] 12.5 µM | [6] 12.2 µM | [7] 35.2 µM | [8] 15.2 µM | [9] 12.9 µM | [10] 10.3 µM | [11] 6.82 µM | [12] 3.1 µM | [13] 3.43 µM | [14] 28.4 µM | [15] 13.2 µM | [16] 4.69 µM | [17] 14.9 µM | [18] 3.63 µM | [19] 6.21 µM

Cn1c(C(C#N)c2cc(Cl)ncn2)nc2ccccc21 (configuration not stated)
inactive: [1] > 100 µM | [2] > 100 µM | [4] > 100 µM | [5] > 100 µM | [6] > 100 µM | [7] > 100 µM | [8] > 100 µM | [10] > 100 µM | [11] > 100 µM | [12] > 100 µM | [13] > 100 µM | [14] > 100 µM | [15] > 100 µM | [16] > 100 µM | [17] > 100 µM | [19] > 100 µM

COC(c1ccccc1)C(c1ccccc1)N1CCOCC1 (configuration not stated)
inactive: [1] > 100 µM | [2] > 100 µM | [3] 89.5 µM | [4] 49.7 µM | [5] > 100 µM | [6] > 100 µM | [7] > 100 µM | [8] > 100 µM | [9] > 100 µM | [10] > 100 µM | [11] > 100 µM | [12] > 100 µM | [13] > 100 µM | [14] > 100 µM | [15] > 100 µM | [16] > 100 µM | [17] > 100 µM | [18] > 100 µM | [19] > 100 µM

COc1ccc(C(=O)Nc2ccc(S(=O)(=O)NCC(=O)O)cc2)cc1
inactive: [1] > 100 µM | [2] > 100 µM | [3] > 100 µM | [4] > 100 µM | [5] > 100 µM | [6] > 100 µM | [7] > 100 µM | [9] > 100 µM | [10] > 100 µM | [11] > 100 µM | [12] > 100 µM | [13] > 100 µM | [14] > 100 µM | [15] > 100 µM | [16] > 100 µM | [17] > 100 µM | [18] > 100 µM

O=C(N/C(=C\c1ccc([N+](=O)[O-])cc1)c1nc2cc(Cl)ccc2[nH]1)c1ccccc1
inactive: [2] 24.9 µM | [3] 17.2 µM | [5] 21.1 µM | [6] 30.1 µM | [7] 14 µM | [9] 18.7 µM | [10] 24.4 µM | [11] 11.9 µM | [13] 10.1 µM | [14] 35.1 µM | [15] 18.4 µM | [16] 21.8 µM | [17] 22 µM | [18] 12.8 µM

CCNC(=O)COc1ccc(Cl)cc1Cl
inactive: [1] > 100 µM | [2] > 100 µM | [3] > 100 µM | [4] > 100 µM | [5] > 100 µM | [6] > 100 µM | [7] > 100 µM | [8] > 100 µM | [10] > 100 µM | [11] > 100 µM | [13] > 100 µM | [14] > 100 µM | [15] > 100 µM | [16] > 100 µM | [17] > 100 µM | [18] > 100 µM | [19] > 100 µM

CC12CCC(=O)C[C@H]1CCC(OC=O)C2Br (some centres not stated)
inactive: [1] > 100 µM | [2] > 100 µM | [3] > 100 µM | [4] > 100 µM | [5] > 100 µM | [6] > 100 µM | [7] > 100 µM | [8] > 100 µM | [9] > 100 µM | [10] > 100 µM | [11] > 100 µM | [12] > 100 µM | [13] > 100 µM | [14] > 100 µM | [15] > 100 µM | [16] > 100 µM | [17] > 100 µM | [18] > 100 µM | [19] > 100 µM
